Test results: US7122530B2, “24-hydroxyvitamin D, analogs and uses thereof” (Genzyme Corporation, priority 1998, dated 2006)
Like-named read-outs stand apart in the source and are kept apart here.

Experiments:
[1] = test system: dermatitis (contact and ectopic) patients; assay: Double blind study of oral 24(S)-OH-preD2 formulation in dermatitis (contact and ectopic); format: in vivo, human; details: daily oral 10.0 to 20.0 μg, four to six weeks
Description: An oral dosage formulation containing 24(S)-OH-preD2 is evaluated in a double blind study for therapeutic efficacy of the formulation in the treatment of dermatitis (contact and ectopic). The formulation evaluated contains 10.0 to 20.0 μg of 24(S)-OH-preD2. […] The patients are treated in an outpatient clinic and are divided into an experimental and control population. They are instructed to take the medication once a day, in the morning before breakfast.
In each patient (experimental and control) an area of the skin containing a lesion is selected which is ordinarily covered by clothing, and the patients are instructed not to expose the skin area selected for study to sunlight. The area of the lesion is estimated and recorded, and the lesion(s) is photographed. Relevant details of the photographic procedure are recorded so as to be reproduced when the lesions are next photographed (distance, aperture, angle, background, etc.).
Evaluations of erythema, scaling, and thickness are conducted at weekly intervals by a physician. The final evaluation is usually carried out at the end of four to six weeks of treatment.

[2] = Production of 1α,24(S)-(OH)2-25-ene-D2 in osteoporotic women (blood metabolite, HPLC and radioreceptor assay); format: in vivo, human; details: 25 μg/day for one week; one day following the last dose
Description: Human female subjects, who have been diagnosed with osteoporosis, are given daily doses of 25 μg/day 24-OH-25-ene-D2 for one week. Blood is collected and analyzed for the metabolite 1α,24(S)-(OH)2-25-ene-D2. Lipid is extracted from the blood, and the metabolite is purified by HPLC using standard methods and quantified with the radioreceptor assay produced by Incstar (Stillwater, Minn.).

[3] = test system: subjects with secondary hyperparathyroidism; assay: Twelve-month placebo-controlled trial of 24-OH-preD2 in elderly subjects with secondary hyperparathyroidism; format: in vivo, human; details: 15 μg/day, twelve months
Description: (§1) A twelve-month double-blind placebo-controlled clinical trial is conducted with forty subjects with secondary hyperparathyroidism. The selected subjects have ages between 60 and 100 years and have a history of secondary hyperparathyroidism. Subjects also have femoral neck osteopenia (femoral neck bone mineral density of ≦0.70 g/cm^2).
(§2) All subjects enter a six-week control period after which the subjects are randomized into two treatment groups: one group receives a constant dosage of 15 μg/day 24-OH-preD2, and the other group receives a matching placebo. Both groups maintain a normal intake of dietary calcium without the use of calcium supplements. Efficacy is evaluated by pre- and post-treatment comparisons of the two patient groups with regard to (a) intact PTH (iPTH); (b) radial, femoral and spinal bone mineral density; and (c) bone-specific urine markers (e.g., pyridinium crosslinks). Safety is evaluated by (a) serium calcium and phosphorus, and (b) urine calcium and phosphorus.

[4] = test system: patients with advanced androgen-independent prostate cancer; assay: Study of Example 10 repeated with 24-OH-preD2 in prostate cancer; format: in vivo, human; details: for progression of metastatic disease (CAT scans, X-rays and bone scans): phase two, after two years
From the text: Patients with advanced androgen-independent prostate cancer participate in an open-label study of 24-(OH)-D2. […] On admission to the study, patients begin a course of therapy with oral 24-(OH)-D2 lasting 26 weeks, while discontinuing any previous use of calcium supplements, vitamin D supplements, and vitamin D hormone replacement therapies. During treatment, the patients are monitored at regular intervals for: (1) hypercalcemia, hyperphosphatemia, hypercalciuria, hyperphosphaturia and other toxicity; (2) evidence of changes in the progression of metastatic disease; and (3) compliance with the prescribed test drug dosage.
The study is conducted in two phases. During the first phase, the maximal tolerated dosage (MTD) of daily oral 24-(OH)D2 is determined by administering progressively higher dosages to successive groups of patients. All doses are administered in the morning before breakfast. The first group of patients is treated with 25.0 μg of 24-(OH)D2. Subsequent groups of patients are treated with 50.0, 75.0 and 100.0 μg/day. Dosing is continued uninterrupted for the duration of the study unless serum calcium exceeds 11.6 mg/dL, or other toxicity of grade 3 or 4 is observed, in which case dosing is held in abeyance until resolution of the observed toxic effect(s) and then resumed at a level which has been decreased by 10.0 μg.
The study of Example 10 is repeated for the vitamin D compound, 24-OH-preD2.

[5] = Blood level of 1α,24-(OH)2-D2 in vitamin D-deficient rats given 24-OH-previtamin D2; format: in vivo; details: 0.25 μg/kg oral; four hours after administration
Description: Male weanling rats are fed a diet deficient in vitamin D and with normal calcium (0.47%). After a period of four weeks has elapsed, the rats are divided into two groups, and orally administered either 24-OH-previtamin D2 (0.25 μg/kg) in a vehicle such as lactose or the vehicle (control) alone.

[6] = test system: patients with primary hyperparathyroidism; assay: Clinical trial of 24-OH-preD2 for primary hyperparathyroidism; format: in vivo, human
Description: Twenty renal patients are enrolled in a clinical trial to study primary hyperparathyroidism. The patients show baseline iPTH levels greater than 200 pg/mL. An initial dose of 24-OH-preD2 (2–4 μg/day) is increased (maximum, 10 μg/day) or decreased as necessary to attain and maintain iPTH in the normal range. After 11–12 weeks of treatment, the iPTH levels of the patients decrease to below 100 pg/mL, and in many cases to below 60 pg/mL.

[7] = test system: postmenopausal osteoporotic outpatients; assay: Clinical study of osteoporosis treatment with 24-OH-preD2; format: in vivo, human; details: oral, above 5.0 μg/day, 24 months
Description: A clinical study is conducted with postmenopausal osteoporotic outpatients having ages between 55 and 75 years. The study involves up to 120 patients randomly divided into three treatment groups, and continues for 24 months. Two of the treatment groups receive constant dosages of orally administered 24-OH-preD2 (u.i.d.; two different dose levels above 5.0 μg/day) and the other group receives a matching placebo. All patients maintain a normal intake of dietary calcium (500 to 800 mg/day) and refrain from using calcium supplements. Efficacy is evaluated by pretreatment and posttreatment comparisons of the patient groups with regard to (a) total body, radial, femoral, and/or spinal bone mineral density as determined by x-ray absorptiometry (DEXA), (b) bone biopsies of the iliac crest, and (c) determinations of serum osteocalcin. Safety is evaluated by comparisons of urinary hydroxyproline excretion, serum and urine calcium levels, creatinine clearance, blood urea nitrogen, and other routine determinations.

postmenopausal women = details: cited from earlier work
[8] = test system: patients (Japan; senile osteoporosis); details: cited from earlier work
[9] = test system: postmenopausal osteoporotic out-patients; assay: Clinical study of prevention of bone mass loss with 24(S)-OH-25-ene-D2; format: in vivo, human; details: at or above 5.0 μg/day, 24 to 36 months
Description: A clinical study is conducted with postmenopausal osteoporotic out-patients having ages between 55 and 75 years. The study involves up to 120 patients randomly divided into three treatment groups and continues for 24 to 36 months. Two of the treatment groups receive constant dosages of 24(S)-OH-25-ene-D2 (u.i.d.; two different dose levels at or above 5.0 μg/day) and the other group receives a matching placebo. All patients maintain a normal intake of dietary calcium (500 to 800 mg/day) and refrain from using calcium supplements. Efficacy is evaluated by pre- and post-treatment comparisons of the patient groups with regard to (a) total body calcium retention, and (b) radial and spinal bone mineral density as determined by dual-photon absorptiometry (DPA) or dual-energy x-ray absorptiometry (DEXA). Safety is evaluated by comparisons of urinary hydroxyproline excretion, serum and urine calcium levels, creatinine clearance, blood urea nitrogen, and other routine determinations.

[10] = test system: subjects with secondary hyperparathyroidism; assay: Twelve-month placebo-controlled trial of 24-(OH)-D4 in elderly subjects with secondary hyperparathyroidism; format: in vivo, human; details: 15 μg/day, twelve months
Description: as §1
as §2, with “24-(OH)-D4,” for “24-OH-preD2,”

[11] = In vivo generation of 1α,24-(OH)2-D2 in vitamin D-deficient rats (plasma metabolites by HPLC)
Description: 24-OH-D2 was administered (either oral or intraperitoneal supplementation) to vitamin D-deficient rats. Lipid extracts of the plasma were prepared and the metabolites purified by the method of Horst et al. (Horst, R. L., Koszewski, N. J. and Reinhardt, T. A., Biochem., 29:578–82 (1990) and incorporated herein by reference) described below for synthesizing standard biological 1α,24-(OH)2D2.

Compound: 24(S)-hydroxyprevitamin D2 [24(S)-OH-preD2]
- degree of erythema, scaling, and thickness versus control patients [1]: significantly reduces

Compound: 24-hydroxy-25-ene-vitamin D2 [24-OH-25-ene-D2]
- level of 1α,24(S)-(OH)2-25-ene-D2 in the blood [2]: significant level

Compound: 24-hydroxyprevitamin D2 [24-OH-preD2]
- bone specific urine markers [3]: significantly decreases
- incidence of hypercalcemia [3]: insignificant incidence
- intact PTH (iPTH) [3]: significantly decreases
- radial and spinal bone densities relative to baseline values [3]: stable
- serum calcium levels [3]: normal serum calcium levels
- progression of metastatic disease (CAT scans, X-rays and bone scans) ([4]; higher dosage): stable disease and partial or complete remission in many patients
- progression of metastatic disease (CAT scans, X-rays and bone scans) ([4]; lower dosage): stable disease or partial remission in many patients
- bone pain associated with metastatic disease ([4]; treated with the MTD for at least six months): significantly diminished
- blood level of 1α,24-(OH)2-D2 versus control animals [5]: significantly elevated
- iPTH levels of the patients ([6]; after 11–12 weeks, baseline greater than 200 pg/mL, 2–4 μg/day, titrated): below 100 pg/mL
- iPTH levels, in many cases ([6]; after 11–12 weeks, in many cases): below 60 pg/mL
- episodes of hypercalcemia ([6]; during the study): few episodes of hypercalcemia
- bone biopsies (bone formation) [7]: stimulates normal bone formation
- incidence of hypercalcemia or hypercalciuria, or any other metabolic disturbance [7]: insignificant incidence
- serum osteocalcin [7]: significant elevations
- total body, radial, femoral, and/or spinal bone densities relative to placebo [7]: significantly higher

Compound: C=C1/C(=C\C=C2/CCC[C@]3(C)[C@@H]([C@H](C)CCCC(C)(C)O)CC[C@@H]23)C[C@@H](O)C[C@@H]1O [1α,25-dihydroxyvitamin D3]
- intestinal calcium absorption and calcium balance (postmenopausal women; 0.5 μg/day, postmenopausal women): improved
- effects on bone mass or mineral content (postmenopausal women; dosage levels below 0.5 μg/day): no effects are observed

Compound: C=C1/C(=C\C=C2/CCC[C@]3(C)[C@@H]([C@H](C)CCCC(C)C)CC[C@@H]23)C[C@@H](O)C[C@@H]1O [1α-hydroxyvitamin D3]
- efficacy ([8]; 1 μg/day, Japan, low calcium intake): efficacy is found
- patients in whom toxicity occurs ([8]; 1 μg/day): approximately 20%
- patients in whom toxicity occurs ([8]; 2 μg/day): approximately 67%

Compound: C=C1CC[C@H](O)C/C1=C/C=C1\CCC[C@]2(C)[C@@H]([C@H](C)/C=C/[C@](C)(O)C(=C)C)CC[C@@H]12 [24(S)-OH-25-ene-D2]
- incidence of hypercalcemia or hypercalciuria, or any other metabolic disturbance [9]: insignificant incidence
- total body calcium, and radial and spinal bone densities relative to placebo [9]: significantly higher

Compound: C=C1CC[C@H](O)C/C1=C/C=C1\CCC[C@]2(C)[C@@H]([C@H](C)CCC(C)(O)C(C)C)CC[C@@H]12 (some centres unmarked) [24-(OH)-D4, 24-hydroxyvitamin D4]
- bone specific urine markers [10]: significantly decreases
- incidence of hypercalcemia [10]: insignificant incidence
- intact PTH (iPTH) [10]: significantly decreases
- radial and spinal bone densities relative to baseline values [10]: stable
- serum calcium levels [10]: normal serum calcium levels

Compound: C=C1CC[C@H](O)C/C1=C/C=C1\CCC[C@]2(C)[C@@H]([C@H](C)/C=C/[C@H](C)C(C)C)CC[C@@H]12 [vitamin D2]
- metabolite isolated from plasma lipid extracts versus standard 1α,24-(OH)2D2 ([11]; vitamin D-deficient rats, oral or intraperitoneal supplementation, HPLC): co-migrated on HPLC with the standard 1α,24-(OH)2D2

Compound: C=C1CC[C@H](O)C/C1=C/C=C1\CCC[C@]2(C)[C@@H]([C@H](C)CCCC(C)C)CC[C@@H]12 [vitamin D3]
- detectable 24-OH-D3 in plasma ([11]; comparable vitamin D-deficient rats): no detectable 24-OH-D3
